US20220378923A1, “BET DEGRADER” (KYOWA KIRIN CO., LTD., priority 2019, published 2022)

System: MYC mRNA expression in SU-DHL-4 cells
Test: Suppressive effect on MYC mRNA expression (Test Example 2)
Type: cell-based, human
Details: test compound 100 nmol/L, 6 hours, qRT-PCR corrected by ACTB, GAPDH; for Suppression Rate of MYC mRNA Expression (%): HPRT1; for inhibition at 0.1 µM: Homo sapiens, HPRT1, read-out: Suppression Rate of MYC mRNA Expression (%)
Description: The cells were passaged twice a week at a volume of 20-40 mL so as to maintain a cell concentration of 1×10^6 cells/mL or less. The cultured SU-DHL-4 cells were seeded at 6×10^5 cells/well in a transparent 6-well plate (Code No. 140675, Thermo Fisher Scientific). After seeding, the cells were precultured at 37° C. in a carbon dioxide gas incubator for 18 to 25 hours. […] At this time, the final concentration of DMSO was adjusted to be 0.1 vol %. After adding the test compound, the cells were cultured at 37° C. in a carbon dioxide gas incubator for 6 hours. Then, the cells were collected by centrifugation and used for extraction of mRNA. mRNA extraction from cells was performed using Maxwell® 16 LEV simplyRNA Purification Kits (Code No. AS1270, Promega). The mRNA recovery protocol was performed according to the manufacturer's recommended protocol attached to the kit. […] The cDNA conversion was performed, according to the manufacturer's recommended protocol attached to the kit, in 0.020 mL of the reaction solution, and GeneAmp® PCR System 9700 (Applied Biosystems) was used. The cDNA-converted sample was diluted 10-fold by adding 0.180 mL of RNase Free Water (Code No. 10977-023, Thermo Fisher Scientific) and used for quantitative real-time polymerase chain reaction (qRT-PCR). For the calibration curve of qRT-PCR, 0.08 mL of RNase Free Water was added to a cDNA sample using DMSO as a test compound for 5-fold dilution. Further, two 5-fold dilutions were prepared stepwise, and these three samples were used as the calibration curve samples. The following reagents were used for qRT-PCR: TaqMan Gene Expression Assays, Inventoried (Primer probe: Code No. 4331182, Thermo Fisher Scientific, Assay ID: (i) MYC: Hs00153408_m1, (ii) ACTB: Hs01060665_g1, (iii) GAPDH: Hs04420697_g1, (iv) HPRT1: […] Universal PCR Master Mix, no AmpEraseR UNG (Master Mix: Code No. 4367846, Thermo Fisher Scientific). Primer probe (0.001 mL), Master Mix (0.010 mL), water (0.004 mL) and the diluted cDNA sample (0.005 mL) were mixed, and qRT-PCR analysis was performed. For qRT-PCR analysis, QuantStudio 7 Flex (Thermo Fisher Scientific) or 7500 Fast Real-Time PCR (Applied Biosystems) was used to measure in Fast mode and analyze. […] Corrected MYC expression=A/B • A: MYC expression level • B: Geometric mean of expression levels of ACTB, GAPDH and HPRT1 Using the corrected values, the suppression rate of MYC expression for the wells to which the test compound was not added was calculated by the following formula. […] Corrected MYC expression level in a well containing test compound • D: Corrected MYC expression level in a well to which test compound was not added

| SMILES | Suppression Rate of MYC mRNA Expression (%) | inhibition at 0.1 µM |
| --- | --- | --- |
| CCC(=O)N1c2ccccc2[C@H](Nc2ccc(C(=O)NCCNS(=O)(=O)c3ccc(N[C@@H]4C[C@H](C)N(C(=O)CC)c5ccccc54)cc3)cc2)C[C@@H]1C [Compound 4d, 4-{[(2S,4R)-2-Methyl-1-propionyl-1,2,3,4-tetrahydroquinolin-4-yl]amino}-N-{2-[(4-{[(2S,4R)-2-methyl-1-propionyl-1,2,3,4-tetrahydroquinolin-4-yl]amino}phenyl)sulfonamide]ethyl}benzamide] | 98.3% | – |
| CCC(=O)N1c2ccccc2[C@H](Nc2ccc(NC(=O)CNCC(=O)Nc3ccc(N[C@@H]4C[C@H](C)N(C(=O)CC)c5ccccc54)cc3)cc2)C[C@@H]1C [Compound 5d, 2,2′-Azanediylbis(N-(4-(((2S,4R)-2-methyl-1-propionyl-1,2,3,4-tetrahydroquinolin-4-yl)amino)phenyl)acetamide)] | – | 97.5% |
| CCC(=O)N1c2ccccc2[C@H](Nc2ccc(CNCc3cn(-c4ccc(N[C@@H]5C[C@H](C)N(C(=O)CC)c6ccccc65)cc4)nn3)cc2)C[C@@H]1C [Compound 5h, 1-((2S,4R)-2-Methyl-4-((4-((((1-(4-(((2S,4R)-2-methyl-1-propionyl-1,2,3,4-tetrahydroquinolin-4-yl)amino)phenyl)-1H-1,2,3-triazol-4-yl)methyl)amino)methyl)phenyl)amino)-3,4-dihydroquinolin-1(2H)-yl)propan-1-one] | – | 97.3% |
| CCC(=O)N1c2ccccc2[C@H](Nc2ccc(Cn3cc(C(=O)Nc4ccc(N[C@@H]5C[C@H](C)N(C(=O)CC)c6ccccc65)cc4)nn3)cc2)C[C@@H]1C [Compound 5j, 1-(4-(((2S,4R)-2-Methyl-1-propionyl-1,2,3,4-tetrahydroquinolin-4-yl)amino)benzyl)-N-(4-(((2S,4R)-2-methyl-1-propionyl-1,2,3,4-tetrahydroquinolin-4-yl)amino)phenyl)-1H-1,2,3-triazolee-4-carboxamide] | 96.8% | – |
| CCC(=O)N1c2ccccc2[C@H](Nc2ccc(Cc3cnc4n3CCN(C(=O)c3ccc(N[C@@H]5C[C@H](C)N(C(=O)CC)c6ccccc65)cc3)C4)cc2)C[C@@H]1C [Compound 5q, 1-((2S,4R)-2-Methyl-4-((4-((7-(4-(((2S,4R)-2-methyl-1-propionyl-1,2,3,4-tetrahydroquinolin-4-yl)amino)benzoyl)-5,6,7,8-tetrahydroimidazo[1,2-a]pyrazin-3-yl)methyl)phenyl)amino)-3,4-dihydroquinolin-1(2H)-yl)propan-1-one] | – | 97.2% |
| CCC(=O)N1c2ccccc2[C@H](Nc2ccc(CCCC(=O)Nc3ccc(N[C@@H]4C[C@H](C)N(C(=O)CC)c5ccccc54)cc3)cc2)C[C@@H]1C [Compound 5r, N,4-Bis(4-(((2S,4R)-2-methyl-1-propionyl-1,2,3,4-tetrahydroquinolin-4-yl)amino)phenyl)butanamide] | – | 96.7% |
| CCC(=O)N1c2ccccc2C(Nc2ccc(NC(=O)C#CCNC(=O)c3ccc(N[C@@H]4C[C@H](C)N(C(=O)CC)c5ccccc54)cc3)cc2)CC1C (stereo partly drawn) [Compound 6h, 4-(((2S,4R)-2-Methyl-1-propionyl-1,2,3,4-tetrahydroquinolin-4-yl)amino)-N-(4-((4-((2-methyl-1-propionyl-1,2,3,4-tetrahydroquinolin-4-yl)amino)phenyl)amino)-4-oxobut-2-yn-1-yl)benzamide] | – | 97.2% |
| CCC(=O)N1c2ccccc2[C@H](Nc2ccc(-c3nnc(CNC(=O)[C@H]4CC[C@H](N[C@@H]5C[C@H](C)N(C(=O)CC)c6ccccc65)CC4)o3)cc2)C[C@@H]1C [Compound 7q, (1R,4R)-4-(((2S,4R)-2-Methyl-1-propionyl-1,2,3,4-tetrahydroquinolin-4-yl)amino)-N-((5-(4-(((2S,4R)-2-methyl-1-propionyl-1,2,3,4-tetrahydroquinolin-4-yl)amino)phenyl)-1,3,4-oxadiazol-2-yl)methyl)cyclohexane-1-carboxamide] | 97.4% | – |
| CCC(=O)N1c2ccccc2[C@H](Nc2ccc(C(=O)N3CC(C(=O)N[C@H]4CC[C@H](N[C@@H]5C[C@H](C)N(C(=O)CC)c6ccccc65)CC4)C3)cc2)C[C@@H]1C [Compound 8r, 1-(4-(((2S,4R)-2-Methyl-1-propionyl-1,2,3,4-tetrahydroquinolin-4-yl)amino)benzoyl)-N-((1R,4R)-4-(((2S,4R)-2-methyl-1-propionyl-1,2,3,4-tetrahydroquinolin-4-yl)amino)cyclohexyl)azetidine-3-carboxamide] | 96.7% | – |
| CCC(=O)N1c2ccccc2[C@H](Nc2ccc(NC(=O)CCCC(=O)Nc3ccc(N[C@@H]4C[C@H](C)N(C(=O)CC)c5ccccc54)nc3)cc2)C[C@@H]1C [Compound 10k, N^1-(4-(((2S,4R)-2-Methyl-1-propionyl-1,2,3,4-tetrahydroquinolin-4-yl)amino)phenyl)-N^5-(6-(((2S,4R)-2-methyl-1-propionyl-1,2,3,4-tetrahydroquinolin-4-yl)amino)pyridin-3-yl)glutaramide] | – | 97% |
| CCC(=O)N1c2ccccc2[C@H](Nc2ccc(-c3nnc(CNC(=O)C4CCN(Cc5cc(O)cc(-c6c(C)noc6C)c5)CC4)o3)cc2)C[C@@H]1C [Compound 12a, 1-(3-(3,5-Dimethylisoxazol-4-yl)-5-hydroxybenzyl)-N-((5-(4-(((2S,4R)-2-methyl-1-propionyl-1,2,3,4-tetrahydroquinolin-4-yl)amino)phenyl)-1,3,4-oxadiazol-2-yl)methyl)piperidine-4-carboxamide] | – | 98.5% |
| CCC(=O)N1c2ccccc2[C@H](Nc2ccc(NC(=O)C3CN(C(=O)C4CCN(Cc5cc(O)cc(-c6c(C)noc6C)c5)CC4)C3)cc2)C[C@@H]1C [Compound 12b, 1-(1-(3-(3,5-Dimethylisoxazol-4-yl)-5-hydroxybenzyl)piperidine-4-carbonyl)-N-(4-(((2S,4R)-2-methyl-1-propionyl-1,2,3,4-tetrahydroquinolin-4-yl)amino)phenyl)azetidine-3-carboxamide] | – | 97.8% |
| CCC(=O)N1c2ccccc2[C@H](Nc2ccc(SCCNC(=O)c3ccc(C4=N[C@@H](CC(=O)OCCN(C)C)c5nnc(C)n5-c5sc(C)c(C)c54)cc3)cc2)C[C@@H]1C [Compound 13a, 2-(Dimethylamino)ethyl 2-((S)-2,3,9-trimethyl-4-(4-((2-((4-(((2S,4R)-2-methyl-1-propionyl-1,2,3,4-tetrahydroquinolin-4-yl)amino)phenyl)thio)ethyl)carbamoyl)phenyl)-6H-thieno[3,2-f][1,2,4]triazolo[4,3-a][1,4]diazepin-6-yl)acetate] | – | 97.6% |
| CCC(=O)N1c2ccccc2[C@H](Nc2ccc(C(=O)NCCCNC(=O)c3ccc(C4=N[C@@H](CC(=O)OC5CCC(O)CC5)c5nnc(C)n5-c5sc(C)c(C)c54)cc3)cc2)C[C@@H]1C (stereo partly drawn) [Compound 13d, 4-Hydroxycyclohexyl 2-((S)-2,3,9-trimethyl-4-(4-((3-(4-(((2S,4R)-2-methyl-1-propionyl-1,2,3,4-tetrahydroquinolin-4-yl)amino)benzamide)propyl)carbamoyl)phenyl)-6H-thieno[3,2-f][1,2,4]triazolo[4,3-a][1,4]diazepin-6-yl)acetate] | 97.2% | – |
| CCC(=O)N1c2ccccc2[C@H](Nc2ccc(C(=O)NCCCNC(=O)c3ccc(C4=N[C@@H](CC(=O)OCCCOC)c5nnc(C)n5-c5sc(C)c(C)c54)cc3)cc2)C[C@@H]1C [Compound 13h, 3-Methoxypropyl 2-((S)-2,3,9-trimethyl-4-(4-((3-(4-(((2S,4R)-2-methyl-1-propionyl-1,2,3,4-tetrahydroquinolin-4-yl)amino)benzamide)propyl)carbamoyl)phenyl)-6H-thieno[3,2-f][1,2,4]triazolo[4,3-a][1,4]diazepin-6-yl)acetate] | 97.4% | – |
| CCC(=O)N1c2ccccc2[C@H](Nc2ccc(-c3cnn(CC(=O)Nc4ccc(C5=NCc6nnc(C)n6-c6sc(C)c(C)c65)cc4)c3)cc2)C[C@@H]1C [Compound 14a, 2-(4-(4-(((2S,4R)-2-Methyl-1-propionyl-1,2,3,4-tetrahydroquinolin-4-yl)amino)phenyl)-1H-pyrazol-1-yl)-N-(4-(2,3,9-trimethyl-6H-thieno[3,2-f][1,2,4]triazolo[4,3-a][1,4]diazepin-4-yl)phenyl)acetamide] | – | 97.1% |
